Laboratory results as given in patent publication US20260072021A1, “SYSTEM, METHOD, AND APPARATUS FOR MICRONEEDLE ARRAY-BASED IMM[…] MULTIPLEX DETECTION OF BIOMARKERS” (The General Hospital Corporation, priority 2022, published 2026).

Tests used:
[1] = Pharmacokinetic study: blood concentrations of cocaine and BZE in mice after IP cocaine (LC-MS); type: in vivo; details: cocaine 1.5 mg/Kg IP, blood sampled at 0, 0.5, 1 and 5 min post-injection
Method: Panel A. Time-dependent blood concentrations of COC and BZE in mice receiving 1.5 mg/Kg cocaine per mouse via IP injection. Panel B. Experimental setup of in vivo detection of circulating COC/BZE using MN-based aptasensor on a B6 black mouse. Panel C. Time-dependent fluorescence intensity of an individual MN that pierces into the mouse skin.
An optical fiber of 500 um in diameter was engineered including 6 emission light collection fibers each at 125 um in diameter, surrounding the single excitation light fiber at the center (FIGS. 13a & 13c). The excitation laser (532-589 nm) is administered directly to the upper dermis via the fiber and transparent MNA to induce skin capillary leakage or extravasation of biomarkers. […] To validate this, cocaine was IP administered at 1.5 mg/Kg per mouse and blood was sampled at 0, 0.5, 1, and 5 min, post-injection. […] When the MNA aptasensor was inserted into the black B6 mice receiving 1.5 mg/kg cocaine intraperitoneally and illuminated with 532 nm laser on the dorsal skin (FIG. 15B), a significant growth of fluorescence intensity as a function of time due to displacement of QDNA by cocaine was clearly seen on individual microneedles (FIG. 15C), confirming the ability of the aptasensor to detect the illicit drug in real time. […]

[2] = humans; cited from earlier work

CN1[C@H]2CC[C@@H]1[C@@H](C(=O)O)[C@@H](OC(=O)c1ccccc1)C2 [BZE, benzoylecgonine]
blood concentration over time [1]: increasing sharply at the first 1 min and then stayed in plateau

COC(=O)[C@H]1[C@@H](OC(=O)c2ccccc2)C[C@@H]2CC[C@H]1N2C [cocaine]
cocaine concentration in blood [2]: 0.06 to 0.1 mg/L
blood concentration over time [1]: slightly increased over the 5 min
